From the supplement of paper PMC9663587

Assays:
[1] = compound: CC(=O)c1c(C)c2cnc(Nc3ccc(N4CCNCC4)cn3)nc2n(C2CCCC2)c1=O; assay: GR value, 72 h; higher = faster growth (1 = untreated, <0 = killing);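 also: breast cancer and non-malignant breast epithelial lines, nine half-log doses, viable cells counted by Hoechst and LIVE/DEAD dye imaging versus time-zero plates and DMSO controls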
[2] = compound: CN(C)C/C=C/C(=O)Nc1ccc(C(=O)N2CCC[C@@H](Nc3ncc(Cl)c(-c4c[nH]c5ccccc45)n3)C2)cc1 [THZ531]; assay: as above
[3] = compound: T1, CN(C)C/C=C/C(=O)Nc1ccc(C(=O)Nc2cccc(Nc3ncc(Cl)c(-c4c[nH]c5ccccc45)n3)c2)cc1 [THZ1]; assay: as above
[4] = compound: T2, CN1CC[C@H](c2c(O)cc(O)c3c(=O)cc(-c4ccccc4Cl)oc23)[C@H](O)C1 [Flavopiridol]; assay: as above
[5] = compound: CCOc1cc2ncc(C#N)c(Nc3ccc(OCc4ccccn4)c(Cl)c3)c2cc1NC(=O)/C=C/CN(C)C [Neratinib/HKI272]; assay: increase in dead-cell fraction, 72 h; higher = more death;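 also: breast cancer cell lines in 384-well plates, stained with Hoechst plus LIVE/DEAD far red dye and imaged, cells above an LDR intensity threshold counted dead, Hoechst-negative corpses included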
[6] = compound: CC(=O)c1c(C)c2cnc(Nc3ccc(N4CCN(CCOCCOCCOCCNC(=O)COc5cccc6c5C(=O)N(C5CCC(=O)NC5=O)C6=O)CC4)cn3)nc2n(C2CCCC2)c1=O [BSJ-03-123]; assay: as above
[7] = compound: CC(=O)c1c(C)c2cnc(Nc3ccc(N4CCNCC4)cn3)nc2n(C2CCCC2)c1=O; assay: as above
[8] = compound: CCN1CCN(Cc2ccc(Nc3ncc(F)c(-c4cc(F)c5nc(C)n(C(C)C)c5c4)n3)nc2)CC1; assay: as above
[9] = compound: T1, THZ1; assay: as above
[10] = compound: CN(C)C(=O)c1cc2cnc(Nc3ccc(N4CCNCC4)cn3)nc2n1C1CCCC1 [LEE011/Ribociclib]; assay: as above
[11] = compound: CCc1cnn2c(NCc3ccc[n+]([O-])c3)cc(N3CCCC[C@H]3CCO)nc12; assay: as above
[12] = compound: T2, Flavopiridol; assay: as above

**Q.** Which results are given for SUM52PE?
**A.** GR value ([1]; 0.0003162 µM): 1.1 GR; GR value ([1]; 0.001 µM): 1.06 GR; GR value ([1]; 0.003162 µM): 1.01 GR; GR value ([1]; 0.01 µM): 0.97 GR; GR value ([1]; 0.03162 µM): 0.863 GR; GR value ([1]; 0.1 µM): 0.695 GR; GR value ([1]; 0.3162 µM): 0.607 GR; GR value ([1]; 1 µM): 0.475 GR; GR value ([1]; 3.162 µM): 0.348 GR; GR value ([2]; 0.0001 µM): 1.05 GR; GR value ([2]; 0.0003162 µM): 0.984 GR; GR value ([2]; 0.001 µM): 0.937 GR; GR value ([2]; 0.003162 µM): 0.994 GR; GR value ([2]; 0.01 µM): 1.02 GR; GR value ([2]; 0.03162 µM): 0.978 GR; GR value ([2]; 0.1 µM): 0.818 GR; GR value ([2]; 0.3162 µM): 0.186 GR; GR value ([2]; 1 µM): -0.226 GR; GR value ([3]; 0.0001 µM): 1.03 GR; GR value ([3]; 0.0003162 µM): 1.01 GR; GR value ([3]; 0.001 µM): 1.04 GR; GR value ([3]; 0.003162 µM): 0.8 GR; GR value ([3]; 0.01 µM): 0.733 GR; GR value ([3]; 0.03162 µM): 0.0891 GR; GR value ([3]; 0.1 µM): -0.0885 GR; GR value ([3]; 0.3162 µM): -0.151 GR; GR value ([3]; 1 µM): -0.403 GR; GR value ([4]; 0.0001 µM): 1.07 GR; GR value ([4]; 0.0003162 µM): 1.06 GR; GR value ([4]; 0.001 µM): 0.942 GR; GR value ([4]; 0.003162 µM): 0.915 GR; GR value ([4]; 0.01 µM): 1.02 GR; GR value ([4]; 0.03162 µM): 0.945 GR; GR value ([4]; 0.1 µM): 0.8 GR; GR value ([4]; 0.3162 µM): 0.357 GR; GR value ([4]; 1 µM): -0.26 GR; increase in dead-cell fraction ([5]; 0.0003162 µM): -0.0009; increase in dead-cell fraction ([5]; 0.001 µM): 0.0018; increase in dead-cell fraction ([5]; 0.003162 µM): 0.0022; increase in dead-cell fraction ([5]; 0.01 µM): 0.0007; increase in dead-cell fraction ([5]; 0.03162 µM): 0.0026; increase in dead-cell fraction ([5]; 0.1 µM): 0.0033; increase in dead-cell fraction ([5]; 0.3162 µM): 0.0005; increase in dead-cell fraction ([5]; 1 µM): 0.0053; increase in dead-cell fraction ([5]; 3.162 µM): 0.0166; increase in dead-cell fraction ([6]; 0.001 µM): -0.0027; increase in dead-cell fraction ([6]; 0.003162 µM): 0.001; increase in dead-cell fraction ([6]; 0.01 µM): 0.0043; increase in dead-cell fraction ([6]; 0.03162 µM): 0.0027; increase in dead-cell fraction ([6]; 0.1 µM): 0.0025; increase in dead-cell fraction ([6]; 0.3162 µM): 0.0035; increase in dead-cell fraction ([6]; 1 µM): 0.0021; increase in dead-cell fraction ([6]; 3.162 µM): 0.0075; increase in dead-cell fraction ([6]; 10 µM): 0.025; increase in dead-cell fraction ([7]; 0.0003162 µM): 0.0036; increase in dead-cell fraction ([7]; 0.001 µM): -0.0018; increase in dead-cell fraction ([7]; 0.003162 µM): -0.0008; increase in dead-cell fraction ([7]; 0.01 µM): 0.0002; increase in dead-cell fraction ([7]; 0.03162 µM): -0.0011; increase in dead-cell fraction ([7]; 0.1 µM): 0.0033; increase in dead-cell fraction ([7]; 0.3162 µM): 0.0047; increase in dead-cell fraction ([7]; 1 µM): 0.006; increase in dead-cell fraction ([7]; 3.162 µM): 0.0091; increase in dead-cell fraction ([8]; 0.001 µM): -0.0031; increase in dead-cell fraction ([8]; 0.003162 µM): -0.0003; increase in dead-cell fraction ([8]; 0.01 µM): 0.0005; increase in dead-cell fraction ([8]; 0.03162 µM): 0.0052; increase in dead-cell fraction ([8]; 0.1 µM): 0.0077; increase in dead-cell fraction ([8]; 0.3162 µM): 0.0061; increase in dead-cell fraction ([8]; 1 µM): 0.0107; increase in dead-cell fraction ([8]; 3.162 µM): 0.0058; increase in dead-cell fraction ([8]; 10 µM): 0.0135; increase in dead-cell fraction ([9]; 0.0001 µM): 0.0004; increase in dead-cell fraction ([9]; 0.0003162 µM): 0.0008; increase in dead-cell fraction ([9]; 0.001 µM): 0.0052; increase in dead-cell fraction ([9]; 0.003162 µM): 0.0023; increase in dead-cell fraction ([9]; 0.01 µM): 0.002; increase in dead-cell fraction ([9]; 0.03162 µM): 0.061; increase in dead-cell fraction ([9]; 0.1 µM): 0.093; increase in dead-cell fraction ([9]; 0.3162 µM): 0.137; increase in dead-cell fraction ([9]; 1 µM): 0.513; increase in dead-cell fraction ([10]; 0.001 µM): 0.0005; increase in dead-cell fraction ([10]; 0.003162 µM): 0.0031; increase in dead-cell fraction ([10]; 0.01 µM): -0.0001; increase in dead-cell fraction ([10]; 0.03162 µM): 0.0002; increase in dead-cell fraction ([10]; 0.1 µM): -0.0001; increase in dead-cell fraction ([10]; 0.3162 µM): 0.0042; increase in dead-cell fraction ([10]; 1 µM): 0.0047; increase in dead-cell fraction ([10]; 3.162 µM): 0.0047; increase in dead-cell fraction ([10]; 10 µM): 0.0071; increase in dead-cell fraction ([11]; 0.0001 µM): 0.0037; increase in dead-cell fraction ([11]; 0.0003162 µM): 0.0003; increase in dead-cell fraction ([11]; 0.001 µM): 0.0018; increase in dead-cell fraction ([11]; 0.003162 µM): 0.0012; increase in dead-cell fraction ([11]; 0.01 µM): 0.006; increase in dead-cell fraction ([11]; 0.03162 µM): 0.101; increase in dead-cell fraction ([11]; 0.1 µM): 0.333; increase in dead-cell fraction ([11]; 0.3162 µM): 0.419; increase in dead-cell fraction ([11]; 1 µM): 0.155; increase in dead-cell fraction ([12]; 0.0001 µM): 0.0019; increase in dead-cell fraction ([12]; 0.0003162 µM): -0.0012; increase in dead-cell fraction ([12]; 0.001 µM): 0.0042; increase in dead-cell fraction ([12]; 0.003162 µM): 0.0019; increase in dead-cell fraction ([12]; 0.01 µM): -0.0015; increase in dead-cell fraction ([12]; 0.03162 µM): 0; increase in dead-cell fraction ([12]; 0.1 µM): 0.0003; increase in dead-cell fraction ([12]; 0.3162 µM): 0.0166; increase in dead-cell fraction ([12]; 1 µM): 0.392
